Measured values published in paper PMC11299051 (Molecular informatics, 2023).

Experiments:
SARS-CoV-2 = conditions: in vivo; cited from earlier work
RdRp (Nsp12 domain) = RdRp (Nsp12 domain) (Severe acute respiratory syndrome coronavirus 2, UniProt P0DTD1); test: biochemical; type: binding, SARS-CoV-2

Row | Compound | binding to Nsp12 (in words) (RdRp (Nsp12 domain)) | further results
1 | Cn1cnc(Cn2c(=O)[nH]/c(=N\c3cc4cn(C)nc4cc3Cl)n(Cc3cc(F)c(F)cc3F)c2=O)n1 [Ensitrelivir] |  | decrease viral clearance (SARS-CoV-2): 50 h
2 | N#C[C@@]1(c2ccc3c(N)ncnn23)O[C@H](COP(=O)(O)OP(=O)(O)OP(=O)(O)O)[C@@H](O)[C@H]1O [GS-443902] | could not detect binding | 
3 | Cc1ccc(C(=O)Nc2ccc(S(=O)(=O)O)c3cc(S(=O)(=O)O)cc(S(=O)(=O)O)c23)cc1NC(=O)c1cccc(NC(=O)Nc2cccc(C(=O)Nc3cc(C(=O)Nc4ccc(S(=O)(=O)O)c5cc(S(=O)(=O)O)cc(S(=O)(=O)O)c45)ccc3C)c2)c1 [Suramin] |  | Kd (RdRp (Nsp12 domain)): 827 ± 306 nM
4 | Cc1ccc(NC(=O)c2ccc(nc2O)C2CC2)c(O)c1 | led to Nsp12 aggregation, so no KD could be determined | 
5 | FC(F)(F)c1ccc2nnc(CNC(=O)c3ccc4 C(=O)N5CCC-CCC5=Nc4c3)n2c1 | led to Nsp12 aggregation, so no KD could be determined | 
6 | Nc1nnnn1-c1cccc(c1)C(=O)NCc1cc(F)ccc1Oc1ccc(F)c-c(Cl)c1 | led to Nsp12 aggregation, so no KD could be determined | 
